Results taken from ChEMBL document CHEMBL1201862, “PubChem BioAssay data set” (2004).
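96-well plates; 48 h exposure; 5 concentrations. Endpoints by linear interpolation between flanking doses. Not reached: highest tested concentration assigned. Here, GI50 denotes the concentration required for 50% inhibition of growth.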 Calls of active or inactive are those of the source. No stated cut-off is given here; in the data, active = GI50 up to about 1.1 µM and inactive = higher.

Key:
Test in all cases: NCI-60 cell line screen, 48 h
RXF 631 = tested on: RXF 631
XF498 = tested on: XF498
DMS-114 = tested on: DMS-114
M19-MEL = tested on: M19-MEL
LXFL 529 = tested on: LXFL 529
KM-20L2 = tested on: KM-20L2
SNB-78 = tested on: SNB-78
DMS-273 = tested on: DMS-273
HOP-18 = tested on: HOP-18

Structure (SMILES)	GI50 (RXF 631)	GI50 (XF498)	GI50 (DMS-114)	GI50 (M19-MEL)	GI50 (LXFL 529)	GI50 (KM-20L2)	GI50 (SNB-78)	GI50 (DMS-273)	GI50 (HOP-18)
COc1ccc(C(=O)Nc2ccccc2)cc1[N+](=O)[O-]	> 100 µM (inactive)	> 100 µM (inactive)	52.4 µM (inactive)	> 100 µM (inactive)	> 100 µM (inactive)	> 100 µM (inactive)	> 100 µM (inactive)	> 100 µM (inactive)	
Cc1cc(C)nc(NS(=O)(=O)c2ccc(NC(=O)c3cccn4c(=O)c5ccccc5nc34)cc2)n1		54.2 µM (inactive)		31.6 µM (inactive)	29.3 µM (inactive)	> 100 µM (inactive)	39.4 µM (inactive)	34.4 µM (inactive)	
CCOC(=O)c1c(CN2CCNCC2)nc2ccc(Cl)cc2c1-c1ccccc1	2.56 µM (inactive)	3.15 µM (inactive)	1.91 µM (inactive)	1.9 µM (inactive)	1.74 µM (inactive)	2.64 µM (inactive)	8.18 µM (inactive)	2.32 µM (inactive)	1.79 µM (inactive)
O=C(c1cccc2ccccc12)N1CCC(C2CCN(C(=O)c3cccc4ccccc34)CC2)CC1	> 100 µM (inactive)	89.3 µM (inactive)	> 100 µM (inactive)	> 100 µM (inactive)	> 100 µM (inactive)	> 100 µM (inactive)	70.1 µM (inactive)	> 100 µM (inactive)	> 100 µM (inactive)
CC(NS(=O)(=O)c1ccc([N+](=O)[O-])cc1)C(=O)O (stereo not drawn)	> 100 µM (inactive)	> 100 µM (inactive)			> 100 µM (inactive)	> 100 µM (inactive)		> 100 µM (inactive)	> 100 µM (inactive)
COC(=O)CC1C(=O)OCc2c1cc1n(c2=O)Cc2c-1nc1ccccc1c2OC (stereo not drawn)		> 100 µM (inactive)	34.3 µM (inactive)	69.7 µM (inactive)	> 100 µM (inactive)	> 100 µM (inactive)		12.7 µM (inactive)	64.7 µM (inactive)
CC(=O)N1CCN(C=S)CC1	> 100 µM (inactive)	> 100 µM (inactive)	> 100 µM (inactive)	> 100 µM (inactive)	> 100 µM (inactive)	> 100 µM (inactive)	> 100 µM (inactive)	> 100 µM (inactive)	
CN(C)C(=S)/N=c1\ss/c(=N\C(=S)N(C)C)n1Cc1ccco1			> 100 µM (inactive)	> 100 µM (inactive)	> 100 µM (inactive)	> 100 µM (inactive)	> 100 µM (inactive)	> 100 µM (inactive)	> 100 µM (inactive)
O=C1[C@@H]2C3C=CC([C@H]4C(=O)N(CO)C(=O)[C@@H]34)[C@@H]2C(=O)N1CO		> 100 µM (inactive)	32.1 µM (inactive)	> 44.9 µM (inactive)	79.1 µM (inactive)	> 31.6 µM (inactive)	> 100 µM (inactive)	> 42.7 µM (inactive)	34 µM (inactive)
N#CSCc1nc2ccc(Cl)cc2c(-c2ccccc2)[n+]1[O-]	37.9 µM (inactive)	17.4 µM (inactive)	24.5 µM (inactive)	31.8 µM (inactive)	13.9 µM (inactive)	16.6 µM (inactive)	36.9 µM (inactive)		19.5 µM (inactive)
O=C1CC(O)C=C1Nc1ccc(Cl)cc1 (stereo not drawn)	31.4 µM (inactive)		26.4 µM (inactive)	25.2 µM (inactive)	6.76 µM (inactive)	0.708 µM (active)	39.6 µM (inactive)	13.1 µM (inactive)	29.4 µM (inactive)
c1ccc2c(c1)N=C(c1cccc3ccccc13)CC(c1cccc3ccccc13)S2 (stereo not drawn)		9.79 µM (inactive)	2.74 µM (inactive)	5.53 µM (inactive)	3.27 µM (inactive)	3.24 µM (inactive)	5.53 µM (inactive)	4.46 µM (inactive)	5.57 µM (inactive)
COc1ccc(/C=C/c2cc(OC)c(OC)c(OC)c2)cc1OC	> 100 µM (inactive)	77.8 µM (inactive)	> 100 µM (inactive)		78.9 µM (inactive)	> 100 µM (inactive)	36.1 µM (inactive)	> 82.2 µM (inactive)	> 100 µM (inactive)
CCOC(=O)c1ccc(C)c(/N=N/N(C)C)c1		> 100 µM (inactive)	> 100 µM (inactive)	> 100 µM (inactive)		> 100 µM (inactive)		> 100 µM (inactive)	4.32 µM (inactive)
CCC(C)OC(=O)C1C2CCC(O2)C1C(=O)O (stereo not drawn)			> 41.6 µM (inactive)	> 60.7 µM (inactive)	> 62.7 µM (inactive)	> 44.9 µM (inactive)	> 100 µM (inactive)	> 42.8 µM (inactive)	> 100 µM (inactive)
